For one experiment, the system named is Colletotrichum capsici. The experiment in a line: Growth inhibition plate assay, C. capsici. The format is cell-based. As to conditions: Colletotrichum truncatum, ND = Not Detectable, read-out: Plate assay inhibition, P2 C. capsici.
The subject of a further experiment is Pyrricularia oryzae. The experiment in a line: microbe, parasite or virus in culture. The format is cell-based. As to conditions: Pyricularia oryzae, read-out: Plate assay inhibition, P5 P. oryzae, 25 ppm; ND = Not Detectable.
Another experiment deals with Rhizoctonia solani. The experiment is described as follows: Growth inhibition plate assay, R. solani. The format is cell-based. As to conditions: ND = Not Detectable, read-out: Plate assay inhibition, P1 R. solani.
For another experiment, the system named is Fusarium oxysporum. The experiment is described as follows: Growth inhibition plate assay, F. oxysporum. As to conditions: Fusarium oxysporum, ND = Not Detectable, read-out: Plate assay inhibition, P4 F. oxysporum. The format is cell-based.
Experiment [1] deals with plant pathogenic fungi (all the test pathogens). The format is cell-based.
For a further experiment, the system named is grape downy mildew. The experiment in a line: Field experiment against grape downy mildew. The format is in vivo, grapevine. The method, then:
A field experiment was conducted on pruned grapevine, in a randomized block design with ten treatments (Table No. 3) and three replications. Two sprays were given at an interval of 6 days starting at 28 days after pruning. The plot size was ten vines per treatment/replication. The spraying was done by Knapsack sprayer using 1000 L spray volume/hectare. […] Based on the observations, percent disease incidence was worked out. The data was subjected to statistical analysis.

In another experiment the test system is grape powdery mildew. The experiment in a line: Field experiment against grape powdery mildew. As to conditions: for PDI on Bunches 11 DAIIS / % Disease Control (11 DAIIS): 11 days after 2nd spray; for % Disease Control (11 DAIIS) / % Disease Control (15 DAIIS): over untreated check; for PDI on Bunches 15 DAIIS / % Disease Control (15 DAIIS): 15 days after 2nd spray. The format is in vivo, grapevine. The method, then:
A field experiment was conducted on pruned grapevine, in a randomized block design with ten treatments (Table No 1) and three replications. Two sprays were given at an interval of 10 days. The plot size was eight vines per treatment/replication. The spraying was done by Knapsack sprayer using 850 L spray volume/hectare. […] Based on the observations percent incidence was worked out.

Another experiment deals with Drechslera oryzae. The experiment is described as follows: Growth inhibition plate assay, D. oryzae. The format is cell-based. As to conditions: Bipolaris oryzae, read-out: Plate assay inhibition, P3 D. oryzae, 25 ppm; ND = Not Detectable.
In the next experiment the test system is Pythium aphanidermatum. The experiment in a line: Growth inhibition plate assay, P. aphanidermatum. The format is cell-based. As to conditions: ND = Not Detectable, read-out: Plate assay inhibition, P6 P. aphanidermatum.

Structures are written as SMILES.

Regarding `Clc1ncc(COCC2COC3(CCN(CCc4ccccc4)CC3)O2)s1` (stereo not shown) [Compound 4, 2-(2-chloro-5-thiazolyl)methoxymethyl-8-phenethyl-1,4-dioxa-8-azaspiro[4,5]decane], the inhibition at 25 ppm with Colletotrichum capsici is 20 to 30%; with Pyrricularia oryzae, 30 to 40%; in the experiment on Rhizoctonia solani it was 20 to 30%; in the experiment with Fusarium oxysporum it was 30 to 40%. The “inhibition against all the test pathogens” value in experiment [1] is reported as 20-30%.
Turning to `CO/C=C(/C(=O)OC)c1ccccc1Oc1cc(Oc2ccccc2C#N)ncn1` [Azoxystrobin, reference compound], the “Grape Downy mildew incidence 7 DAIIS” value in the experiment on grape downy mildew (23 SC @ 230 g a.i./ha, 7 days after 2nd spray) came out at 3.32%. In addition, in the experiment with grape downy mildew (23 SC @ 230 g a.i./ha, 7 days after 2nd spray, over untreated check), the “% Control (7 DAIIS)” value was 80.29%. In the experiment with grape downy mildew (23 SC @ 230 g a.i./ha, 10 days after 2nd spray), the “Grape Downy mildew incidence 10 DAIIS” value is listed as 2.7%. The “% Control (10 DAIIS)” value in the experiment on grape downy mildew (23 SC @ 230 g a.i./ha, 10 days after 2nd spray, over untreated check) stood at 88.14%. Besides, in the experiment on grape powdery mildew (25 SC @ 212 g a.i./ha), the “PDI on Bunches 11 DAIIS” value is listed as 8.68%, the “% Disease Control (11 DAIIS)” value is on record as 70.97%, the “PDI on Bunches 15 DAIIS” value worked out at 5.92% and the “% Disease Control (15 DAIIS)” value worked out at 77.34%.
`c1ccc(CCN2CCC3(CC2)OCC(CN2CCOCC2)O3)cc1` (stereo not shown) [Compound 3, 2-(morpholin-4-yl)methyl-8-phenethyl-1,4-dioxa-8-azaspiro[4,5]decane]: the inhibition at 25 ppm in the experiment on Drechslera oryzae lay in the range of 60 to 70%; with Pyrricularia oryzae, 40 to 50%; with Rhizoctonia solani, 70 to 80%; in the experiment on Fusarium oxysporum it was 70 to 80%.
`COc1ccc(C(=CC(=O)N2CCOCC2)c2ccc(Cl)cc2)cc1OC` [Dimethomorph, reference compound]: the “Grape Downy mildew incidence 7 DAIIS” value with grape downy mildew (50 WP @ 500 g a.i./ha, 7 days after 2nd spray) stood at 2.39%. Further, the “Grape Downy mildew incidence 10 DAIIS” value in the experiment with grape downy mildew (50 WP @ 500 g a.i./ha, 10 days after 2nd spray) was determined as 2.42%. Besides, the “% Control (7 DAIIS)” value in the experiment with grape downy mildew (500 g/ha, 168 h) is reported as 85.81%. The “% Control (10 DAIIS)” value in the experiment with grape downy mildew (500 g/ha, 240 h) came out at 89.37%.
As for `CO/N=C(/C(=O)OC)c1ccccc1COc1ccccc1C` [Kresoxim methyl, reference compound], in the experiment on grape powdery mildew (50 SC 425 g a.i./ha), the “PDI on Bunches 11 DAIIS” value is recorded as 5.5%, the “% Disease Control (11 DAIIS)” value is given as 81.61%, the “PDI on Bunches 15 DAIIS” value is given as 3.55% and the “% Disease Control (15 DAIIS)” value is recorded as 86.41%.
For `CCCCC(O)(Cn1cncn1)c1ccc(Cl)cc1Cl` (stereo not shown) [Hexaconazole, reference compound], in the experiment on grape powdery mildew (5 E @ 42.50 g a.i./ha), the “PDI on Bunches 11 DAIIS” value was 8.59%, the “% Disease Control (11 DAIIS)” value was determined as 71.28%, the “PDI on Bunches 15 DAIIS” value is 4.81% and the “% Disease Control (15 DAIIS)” value was 81.59%.
Regarding `Fc1ccc(Cl)cc1NCC1COC2(CCN(Cc3cnc(Cl)s3)CC2)O1` (stereo not shown) [Compound 8, N-(5-chloro-2-fluorophenyl)-N-{8-(2-chloro-5-thiazolyl)methyl-1,4-dioxa-8-aza-spiro[4,5]dec-2-yl}methanamine], the figures for the inhibition at 25 ppm with Pythium aphanidermatum and in the experiment with Fusarium oxysporum were 50 to 60% and 20 to 30%, respectively.

Values taken from US8841296B2, “Substituted 1, 4-dioxa-8-azaspiro[4,5]decanes useful as fungicides and a process for the preparation thereof” (Council of Scientific and Industrial Research, Anusandhan …, priority 2009, dated 2014).
